Reference: patent US4317826A, “N,N'-Bis[substituted-1,2,3,4 tetrahydroisoquinolyl]disulfonylimides and antiallergic compositions and method of use” (SmithKline Corporation, priority 1980, dated 1982)

tested on: slow reacting substance of anaphylaxis (SRS-A); assay: Inhibition of SRS-A induced contraction of guinea pig ileum; assay type: cell-based; settings: Cavia porcellus, 0.25 h; compound concentration 5 × 10^-5 M; partially purified SRS-A from guinea pig lung at 40 μg/ml; 15 minute incubation; read-out: Percent Antagonism
Experimental: The SRS-A antagonist activity of the compounds of this invention is measured by the ability of the active medicament to inhibit SRS-A induced contraction of guinea pig ileum. In this test system, sections of ileum are resected from guinea pigs and placed in 5 ml. tissue baths containing a modified Tyrode's solution. One end of the tissue is fixed to a glass tissue holder, the other is connected to a force-displacement transducer and the tissue is placed under a tension of 500 mg. Isometric tissue contractions are recorded on a six channel polygraph. Baths are constantly aerated with 95% O2 -5% CO2. After a 20 minute stabilization period a concentration of the appropriate agonist which provides a contraction height of 60-80% of the maximum obtainable to that agonist (as determined from full sequential concentration--response curves in separate experiments) is added to the tissue bath and the response recorded. The procedure is repeated until reproducible responses are obtained. For most agonists, two applications in rapid succession, followed 15 minutes later by a third, is sufficient to establish reproducibility. Experimental tissues are incubated with the selected concentration of the test compounds for 15 minutes. Experimental and control tissues are subjected to 5 bath changes during the incubation interval. Changes in bath fluid during the incubation period are helpful in insuring the reproducibility of tissue responses to the agonist. The same concentration of the agonist is reapplied in the presence of the test compound and the response registered and compared with controls. Percent inhibition produced by the test compound is calculated by subtracting the mean percentage change in control tissue from the mean percentage change in tissues exposed to the test compound. Additional compounds are then evaluated as long as the tissue remains reproducibly responsive to the agonist. Six tissues obtained from 6 animals are used simultaneously--3 controls and 3 experimental.
The compounds of this invention tested at concentrations of from 5×10^-5 to 5×10^-6 produce marked antagonism of partially purified slow reacting substance of anaphylaxis obtained from guinea pig lung. The agonist is employed at a concentration of 40 μg/ml. Representative of this effect, tabulated below are a number of the claimed compounds and percent antagonism of SRS-A at various compound concentrations.

SMILES | inhibition at 50 µM
O=S(=O)(NS(=O)(=O)N1CCc2cc(Cl)ccc2C1)N1CCc2cc(Cl)ccc2C1 [H 6-Cl H H] | 84.2%

same assay, conditions: Cavia porcellus, 0.25 h; compound concentration 5 × 10^-6 M; partially purified SRS-A from guinea pig lung at 40 μg/ml; 15 minute incubation; read-out: Percent Antagonism

SMILES | inhibition at 5 µM
O=S(=O)(NS(=O)(=O)N1CCc2ccc(C(F)(F)F)c(C(F)(F)F)c2C1)N1CCc2ccc(C(F)(F)F)c(C(F)(F)F)c2C1 [7-CF3 8-CF3 H H] | 26.8%
Cc1ccc2c(c1Cl)CN(S(=O)(=O)NS(=O)(=O)N1CCc3ccc(C)c(Cl)c3C1)CC2 [7-CH3 8-Cl H H] | 49.9%
O=S(=O)(NS(=O)(=O)N1CCc2cc(Cl)c(Cl)cc2C1)N1CCc2cc(Cl)c(Cl)cc2C1 [7-Cl 6-Cl H H] | 56.3%
CC(C)C1c2c(ccc(Cl)c2Cl)CCN1S(=O)(=O)NS(=O)(=O)N1CCc2ccc(Cl)c(Cl)c2C1C(C)C (centres unmarked) [7-Cl 8-Cl CH(CH3)2 H] | 63%
CC1Cc2ccc(Cl)c(Cl)c2CN1S(=O)(=O)NS(=O)(=O)N1Cc2c(ccc(Cl)c2Cl)CC1C (centres unmarked) [7-Cl 8-Cl H CH3] | 52.5%
O=S(=O)(NS(=O)(=O)N1CCc2ccc(Cl)c(Cl)c2C1)N1CCc2ccc(Cl)c(Cl)c2C1 [7-Cl 8-Cl H H, N,N'-bis(7,8-dichloro-1,2,3,4,-tetrahydroisoquinolyl)disulfonylimide] | 42%
O=S(=O)(NS(=O)(=O)N1CCc2ccc(Cl)c(Cl)c2C1C1CC1)N1CCc2ccc(Cl)c(Cl)c2C1C1CC1 (centres unmarked) [7-Cl 8-Cl [drawing 3] H] | 60%
O=S(=O)(NS(=O)(=O)N1CCc2ccc(Cl)c(SC(F)(F)C(F)F)c2C1)N1CCc2ccc(Cl)c(SC(F)(F)C(F)F)c2C1 [7-Cl 8-SCF2 CF2 H H H] | 36.2%
O=S(=O)(NS(=O)(=O)N1CCc2c(Br)ccc(Br)c2C1)N1CCc2c(Br)ccc(Br)c2C1 [8-Br 5-Br H H] | 22.9%
O=S(=O)(NS(=O)(=O)N1CCc2c(Br)cccc2C1)N1CCc2c(Br)cccc2C1 [H 5-Br H H] | 45.2%
